# Data reported in paper PMC8298264, “Function of cofactor Akirin2 in the regulation of gene expression in model human neutrophil-like HL60 cells” (Bioscience Reports, 2021).
# Tested on: human HL60 cells
# Test: SWATH-MS proteomics, differential protein representation, akirin2 KO vs WT HL60 cells
# Format: cell-based
# Details: KO vs WT HL60 cells; sheet "Under-represented in KO"
# Experimental: Total proteins were extracted from WT and akirin2 KO HL60 cells using the AllPrep DNA/RNA/Protein Mini Kit (Qiagen) and protein concentration was determined using the BCA Protein Assay with BSA (Sigma–Aldrich) as standard. Protein extracts (150 µg per sample, n=3 biological replicates) from each WT and KO cells were trypsin digested using the FASP Protein Digestion Kit (Expedeon Ltd., Abcam, Cambridge, U.K.) and sequencing grade trypsin (Promega, Madison, WI, U.S.A.) following manufacturer’s recommendations. The resulting peptides were finally desalted on to OMIX Pipette tips C18 (Agilent Technologies, Santa Clara, CA, U.S.A.), dried down and stored at −20 °C until mass spectrometry analysis. […] Three micrograms of each protein digest from the three biological replicates of WT and akirin2 KO HL60 cells were used for the generation of the reference spectral ion library as part of the SWATH-MS analysis.
# Peptides were eluted in a 120-min gradient from 5 to 30% solvent B in solvent A followed by 15-min gradient from 30 to 60% solvent B in solvent A (solvent A: 0.1% formic acid in water, solvent B: 0.1% formic acid in acetonitrile) and directly injected into the mass spectrometer for analysis. For IDA experiments, the mass spectrometer was set to scanning full spectra (350–1400 m/z) using 250 ms accumulation time per spectrum, followed by up to 50 MS/MS scans (100–1500 m/z). Candidate ions with a charge state between +2 and +5 counts per second above a minimum threshold of 100 were isolated for fragmentation. One MS/MS spectrum was collected for 100 ms, before adding those precursor ions to the exclusion list for 15 s (mass spectrometer operated by Analyst TF 1.6, AB Sciex). Dynamic background subtraction was turned off. MS/MS analyses were recorded in high-sensitivity mode with rolling collision energy on and a collision energy spread of 5. For SWATH quantitative analysis, six independent samples (three replicates from WT and akirin2 KO HL60 cells, 5 µg each) were subjected to the cyclic DIA of mass spectra using the SWATH variable windows calculator (V 1.0, AB Sciex) and the SWATH acquisition method editor (AB Sciex), similar to established methods. […] For these experiments, a 50-ms survey scan (350–1400 m/z) was acquired at the beginning of each cycle, and SWATH–MS/MS spectra were collected from 100–1500 m/z for 70 ms at high-sensitivity mode, resulting in a cycle time of 3.6 s. Collision energy for each window was determined according to the calculation for a charge +2 ion-centered upon the window with a collision energy spread of 15. To create a spectral library of all the detectable peptides in the samples, the IDA MS raw files were combined and subjected to database search in unison using ProteinPilot software v. 5.0.1 (AB Sciex) with the Paragon algorithm. […] The detected protein threshold was set at 0.05. An independent false discovery rate (FDR) analysis, using the target–decoy approach provided by Protein Pilot (AB Sciex; https://sciex.com/products/software/proteinpilot-software), was used to assess the quality of identifications. Positive identifications were considered when identified proteins reached 1% of global FDR. […] Global normalization was performed according to the Total Area Sums (TAS) of all detected proteins in the samples. […] Heatmaps were prepared using the Heatmapper (http://www.heatmapper.ca/expression/) with average linkage and Euclidean distance measurement method.
Substance,Fold Change,Log (Fold Change)
sp¦O94804¦STK10_HUMAN,0.5498,-0.2598
sp¦P09622¦DLDH_HUMAN,0.516,-0.2873
sp¦P31040¦SDHA_HUMAN,0.5299,-0.2758
sp¦P40937¦RFC5_HUMAN,0.4492,-0.3475
sp¦Q7Z6Z7¦HUWE1_HUMAN,0.5255,-0.2794

# Same assay, conditions: KO vs WT; akirin2 KO vs WT HL60 cells; sheet "Under-represented in KO"
Substance,Fold Change,Log (Fold Change)
sp¦O00264¦PGRC1_HUMAN,0.6168,-0.2099
sp¦Q8NE71¦ABCF1_HUMAN,0.6253,-0.2039
sp¦Q9BRF8¦CPPED_HUMAN,0.571,-0.2434
sp¦Q9Y4W6¦AFG32_HUMAN,0.6186,-0.2086

# Same assay, conditions: Over-represented in KO; KO vs WT HL60 cells
Substance,Fold Change,Log (Fold Change)
sp¦P04406¦G3P_HUMAN,1.369,0.1364
sp¦P07237¦PDIA1_HUMAN,1.346,0.1292
sp¦P23284¦PPIB_HUMAN,1.275,0.1054
sp¦P25786¦PSA1_HUMAN,1.271,0.1042
sp¦P31689¦DNJA1_HUMAN,1.309,0.117
sp¦P49137¦MAPK2_HUMAN,1.268,0.1031
sp¦Q9P287¦BCCIP_HUMAN,1.299,0.1134
sp¦Q9Y266¦NUDC_HUMAN,1.364,0.135
sp¦Q9Y490¦TLN1_HUMAN,1.355,0.1319

# Same assay, conditions: SWATH-MS, akirin2 KO vs WT HL60 cells, under-represented in KO
Substance,Fold Change,Log (Fold Change)
sp¦O00148¦DX39A_HUMAN,0.7315,-0.1358
sp¦O43813¦LANC1_HUMAN,0.7366,-0.1328
sp¦O95758¦PTBP3_HUMAN,0.7281,-0.1378
sp¦P12268¦IMDH2_HUMAN,0.7306,-0.1363
sp¦P29350¦PTN6_HUMAN,0.7017,-0.1538
sp¦P36404¦ARL2_HUMAN,0.6935,-0.1589
sp¦P38646¦GRP75_HUMAN,0.7142,-0.1462
sp¦P54709¦AT1B3_HUMAN,0.7448,-0.128
sp¦P60953¦CDC42_HUMAN,0.7034,-0.1528
sp¦P61604¦CH10_HUMAN,0.7263,-0.1389
sp¦Q6P2Q9¦PRP8_HUMAN,0.7423,-0.1294
sp¦Q9H0U4¦RAB1B_HUMAN,0.704,-0.1524
sp¦Q9UNS2¦CSN3_HUMAN,0.6926,-0.1595
sp¦Q9Y5B9¦SP16H_HUMAN,0.7335,-0.1346

# Same assay, conditions: SWATH-MS, akirin2 KO vs WT HL60 cells; over-represented in KO
Substance,Fold Change,Log (Fold Change)
CD44 antigen,2.131,0.3287
Cathepsin D,2.358,0.3725
Chitinase-3-like protein 1,1.904,0.2797
Deoxynucleoside triphosphate triphosphohydrolase SAMHD1,1.851,0.2674
Eosinophil peroxidase,5.162,0.7128
Galectin-1,1.707,0.2322
Galectin-10,4.451,0.6485
Heat shock 70 kDa protein 1B,1.868,0.2713
Transferrin receptor protein 1,3.145,0.4976
Vimentin,3.958,0.5975
sp¦O75874¦IDHC_HUMAN,1.681,0.2255
sp¦P11142¦HSP7C_HUMAN,1.579,0.1983
sp¦P14618¦KPYM_HUMAN,1.553,0.1913

# Same assay, conditions: SWATH-MS, akirin2 KO vs WT HL60 cells; sheet "Under-represented in KO"
Substance,Fold Change,Log (Fold Change)
sp¦O43681¦GET3_HUMAN,0.7665,-0.1155
sp¦P0CG38¦POTEI_HUMAN,0.7517,-0.1239
sp¦P10155¦RO60_HUMAN,0.7678,-0.1147
sp¦P28070¦PSB4_HUMAN,0.7608,-0.1188
sp¦P35250¦RFC2_HUMAN,0.7882,-0.1034

# Same assay, conditions: akirin2 KO vs WT HL60 cells; sheet "Over-represented in KO"
Substance,Fold Change,Log (Fold Change)
sp¦E9PAV3¦NACAM_HUMAN,1.243,0.09445
sp¦E9PRG8¦CK098_HUMAN,1.224,0.0879
sp¦O00231¦PSD11_HUMAN,1.117,0.04806
sp¦O14579¦COPE_HUMAN,1.2285,0.08937
sp¦O43447¦PPIH_HUMAN,1.22,0.08634
sp¦P08238¦HS90B_HUMAN,1.209,0.08231
sp¦P13861¦KAP2_HUMAN,1.201,0.07946
sp¦P15531¦NDKA_HUMAN,1.204,0.08072
sp¦P46013¦KI67_HUMAN,1.204,0.08052
sp¦P55072¦TERA_HUMAN,1.115,0.04741

# Same assay, conditions: akirin2 KO vs WT HL60 cells; sheet "Under-represented in KO"
Substance,Fold Change,Log (Fold Change)
sp¦O43148¦MCES_HUMAN,0.671,-0.1733
sp¦P00367¦DHE3_HUMAN,0.6801,-0.1674
sp¦P02792¦FRIL_HUMAN,0.2798,-0.5531
sp¦P05556¦ITB1_HUMAN,0.257,-0.5901
sp¦P08621¦RU17_HUMAN,0.6829,-0.1657
sp¦P12270¦TPR_HUMAN,0.6414,-0.1929
sp¦P35579¦MYH9_HUMAN,0.3518,-0.4538
sp¦P53007¦TXTP_HUMAN,0.3964,-0.4018
sp¦P55809¦SCOT1_HUMAN,0.6768,-0.1696
sp¦P56545¦CTBP2_HUMAN,0.655,-0.1838
sp¦P78527¦PRKDC_HUMAN,0.4323,-0.3642
sp¦P84077¦ARF1_HUMAN,0.682,-0.1662
sp¦Q5T4S7¦UBR4_HUMAN,0.241,-0.6179
sp¦Q8NF50¦DOCK8_HUMAN,0.4042,-0.3934
sp¦Q9NR31¦SAR1A_HUMAN,0.4316,-0.3649
